# Source: patent publication US20150104520A1, “Nanoparticle Formulations in Biomarker Detection” (priority 2013, published 2015)
# Tested on: patients with epithelial ovarian cancer
# Assay: Phase 2 randomized two-arm trial, IG-001 plus carboplatin vs paclitaxel plus carboplatin, 1st line
# Description: Phase II ovarian trial design: randomized, two-arm trial, primary advanced epithelial ovarian cancer consisting of 100 patients (50/each arm). […] The primary objective of the study was to determine the Composite Response by GCIG CA-125 Response and Response Evaluation Criteria in Solid Tumors (RECIST): based on non-inferiority study. […] The treatment regimen included 6 cycles of treatment with injection every three weeks and tumor screening after cycles 2, 4 and 6.
Molecule,response rate (each with carboplatin) [%],"Response n (%) (composite response by GCIG CA-125 and RECIST, IG-001 260 mg/m^2 or paclitaxel 175 mg/m^2, each + carboplatin 5 AUC, every 3 weeks, 6 cycles)",SAE Rate (%) (patients with SAE),UAE Rate (%) (patients with UAE)
CC(=O)O[C@H]1C(=O)[C@@]2(C)[C@H]([C@H](OC(=O)c3ccccc3)[C@]3(O)C[C@H](OC(=O)[C@H](O)[C@@H](NC(=O)c4ccccc4)c4ccccc4)C(C)=C1C3(C)C)[C@]1(OC(C)=O)CO[C@@H]1C[C@@H]2O [paclitaxel],77.8,–,–,–
Paclitaxel + Carboplatin,–,37 (77.08) n (%),15 (31.25) n (%),0 (0.00) n (%)
